Activity calls are given as the source filed them. The rule behind the calls is not given here.
Assays:
[1] = test system: BaF3; test: cells; conditions: Mus musculus, BaF3, 72 h
Description: Antiproliferative activity against mouse BaF3 cells harboring FLT3-ITD-N701K mutation assessed as reduction in cell viability incubated for 72 hrs by CellTiter 96 Aqueous One Solution Cell Proliferation Assay

[2] = target: T1, Voltage-gated inwardly rectifying potassium channel KCNH2 (Homo sapiens, UniProt Q12809); test: Inhibition of hERG expressed in HEK293 cells assessed as fast channel deactivation at 100 uM by whole cell patch clamp analysis; format: toxicity, cell-based; conditions: hek293, 100 µM
[3] = Acute toxicity in ICR mouse assessed as morphological changes in liver at 300 mg/kg, ig and measured for 7 days by Hematoxylin-Eosin staining based analysis; format: organism-based; conditions: in vivo, po, 168 h, time 7 day
[4] = target: Receptor-type tyrosine-protein kinase FLT3 (Homo sapiens) (UniProt P36888); test: Inhibition of FLT3 in human MV4-11 cells assessed as inhibition of STAT5 phosphorylation at Tyr694 residue measured after 90 mins by western blot analysis; format: cell-based; conditions: dose 20-100 nM
[5] = Selectivity ratio of IC50 for TEC (unknown origin) to IC50 for FLT3-ITD mutant (unknown origin)
[6] = target: Receptor-type tyrosine-protein kinase FLT3 (Homo sapiens) (UniProt P36888); test: Inhibition of FLT3 in human MV4-11 cells assessed as inhibition of AKT phosphorylation at Ser473 residue measured after 90 mins by western blot analysis; format: cell-based; conditions: dose 20-100 nM
[7] = Selectivity ratio of IC50 for EPHA1 (unknown origin) to IC50 for FLT3-ITD mutant (unknown origin)
[8] = target: Receptor-type tyrosine-protein kinase FLT3 (Homo sapiens) (UniProt P36888); test: Inhibition of FLT3 in human MV4-11 cells assessed as inhibition of STAT5 phosphorylation at Tyr694 residue at 20 nM measured after 90 mins by western blot analysis; format: cell-based
[9] = Selectivity ratio of IC50 for TAK1 (unknown origin) to IC50 for FLT3-ITD mutant (unknown origin)
[10] = AUC (last) in ICR mouse at 10 mg/kg, po; format: ADME, organism-based; set-up: dose 10 mg/kg, route po; conditions: in vivo
[11] = Selectivity ratio of IC50 for CDK1 (unknown origin) to IC50 for FLT3-ITD mutant (unknown origin)
[12] = Selectivity ratio of IC50 for HCK (unknown origin) to IC50 for FLT3-ITD mutant (unknown origin)
[13] = target: T1, Voltage-gated inwardly rectifying potassium channel KCNH2; test: Inhibition of hERG expressed in HEK293 cells assessed as inhibition of channel current amplitude by whole cell patch clamp analysis; format: toxicity, cell-based
[14] = test system: MV4-11; test: cells; conditions: Homo sapiens, MV4-11, 72 h
Description: Antiproliferative activity against human MV4-11 cells assessed as reduction in cell viability incubated for 72 hrs by CellTiter 96 Aqueous One Solution Cell Proliferation Assay

[15] = Selectivity ratio of IC50 for ASK1 (unknown origin) to IC50 for FLT3-ITD mutant (unknown origin)
[16] = test system: MV4-11; test: Antitumor activity against human MV4-11 cells xenografted in nu/nu mouse assessed as inhibition of tumor growth administered orally qd for 22 days; format: functional; conditions: dose 1-3 mg/kg, route po, time 22.0 day
[17] = test system: MOLM-13; test: Antiproliferative activity against human MOLM-13 cells assessed as reduction in cell viability incubated for 72 hrs by CellTiter 96 Aqueous One Solution Cell Proliferation Assay; format: functional, cell-based
[18] = test system: MV4-11; test: Antitumor activity against human MV4-11 cells xenografted in nu/nu mouse assessed as inhibition of tumor growth rate at 3 mg/kg, po qd for 22 days; format: functional; conditions: MV4-11, 528 h, time 22 day
[19] = Selectivity ratio of IC50 for AMPK alpha2beta1gamma1 (unknown origin) to IC50 for FLT3-ITD mutant (unknown origin)
[20] = Tmax in ICR mouse at 10 mg/kg, po; format: ADME, organism-based; conditions: in vivo
[21] = Selectivity ratio of IC50 for ALK (unknown origin) to IC50 for FLT3-ITD mutant (unknown origin)
[22] = test system: MV4-11; test: Antitumor activity against human MV4-11 cells xenografted in nu/nu mouse assessed as reduction in tumor weight at 3 mg/kg, po qd for 22 days; format: functional, organism-based; conditions: time 22.0 day
[23] = Selectivity ratio of IC50 for PKA (unknown origin) to IC50 for FLT3-ITD mutant (unknown origin)
[24] = target: Receptor-type tyrosine-protein kinase FLT3 (Homo sapiens, UniProt P36888, D835Y)
Description: Inhibition of FLT3 D835Y mutant (unknown origin) using peptide substrate TK-S and ATP as substrate incubated for 1 hr by HTRF assay

[25] = target: Mast/stem cell growth factor receptor Kit (Homo sapiens, UniProt P10721); test: Inhibition of c-KIT (unknown origin) using peptide substrate TK-S and ATP as substrate incubated for 1 hr by HTRF assay; format: toxicity
[26] = Selectivity ratio of IC50 for LYN (unknown origin) to IC50 for FLT3-ITD mutant (unknown origin)
[27] = Selectivity ratio of IC50 for EGFR (unknown origin) to IC50 for FLT3-ITD mutant (unknown origin)
[28] = MRT (infinity) in ICR mouse at 10 mg/kg, po; format: ADME, organism-based; conditions: in vivo
[29] = Toxicity against NSG mouse xenografted with human MOLM-13 cells assessed as body weight loss at 15 to 30 mg/kg, po qd for 26 days; format: organism-based; conditions: in vivo, 624 h, dose 15-30 mg/kg, time 26 day
[30] = Acute toxicity in ICR mouse assessed as morphological changes in lungs at 300 mg/kg, ig and measured for 7 days by Hematoxylin-Eosin staining based analysis; format: organism-based; conditions: in vivo, po, 168 h, time 7 day
[31] = Selectivity ratio of IC50 for BTK (unknown origin) to IC50 for FLT3-ITD mutant (unknown origin)
[32] = Selectivity ratio of IC50 for inhibition of c-KIT (unknown origin) to IC50 for inhibition of FLT3 D835Y mutant (unknown origin)
[33] = Cmax in ICR mouse at 10 mg/kg, po; format: ADME, organism-based; set-up: dose 10 mg/kg, route po; conditions: in vivo
[34] = target: AMPK alpha2/beta1/gamma1 (Homo sapiens, UniProt P54619+P54646+Q9Y478); test: Inhibition of AMPK alpha2beta1gamma1 (unknown origin) by HTRF assay; format: protein-complex assay
[35] = Toxicity against nu/nu mouse xenografted with human MV4-11 cells assessed as body weight changes at 1 to 3 mg/kg, po qd for 22 days; format: organism-based; conditions: in vivo, 528 h, dose 1-3 mg/kg, time 22 day
[36] = Selectivity ratio of IC50 for IRAK4 (unknown origin) to IC50 for FLT3-ITD mutant (unknown origin)
[37] = Selectivity ratio of IC50 for Aurora kinase A (unknown origin) to IC50 for FLT3-ITD mutant (unknown origin)
[38] = Selectivity ratio of IC50 for BMX (unknown origin) to IC50 for FLT3-ITD mutant (unknown origin)
[39] = Acute toxicity in ICR mouse assessed as body weight loss at 300 mg/kg, ig and measured for 7 days; format: organism-based; conditions: in vivo, po, 168 h, time 7 day
[40] = Selectivity ratio of IC50 for IGF1R (unknown origin) to IC50 for FLT3-ITD mutant (unknown origin)
[41] = Acute toxicity in ICR mouse assessed as animal's death at 300 mg/kg, ig and measured for 7 days; format: organism-based; conditions: in vivo, po, 168 h, time 7 day
[42] = target: T1, Voltage-gated inwardly rectifying potassium channel KCNH2; test: Inhibition of hERG expressed in HEK293 cells assessed as inhibition of tail current at 1 to 10 uM by whole cell patch clamp analysis; format: toxicity, cell-based; conditions: hek293, 10 µM, dose 1-10 µM

T1 sequence (Q12809 whole entry): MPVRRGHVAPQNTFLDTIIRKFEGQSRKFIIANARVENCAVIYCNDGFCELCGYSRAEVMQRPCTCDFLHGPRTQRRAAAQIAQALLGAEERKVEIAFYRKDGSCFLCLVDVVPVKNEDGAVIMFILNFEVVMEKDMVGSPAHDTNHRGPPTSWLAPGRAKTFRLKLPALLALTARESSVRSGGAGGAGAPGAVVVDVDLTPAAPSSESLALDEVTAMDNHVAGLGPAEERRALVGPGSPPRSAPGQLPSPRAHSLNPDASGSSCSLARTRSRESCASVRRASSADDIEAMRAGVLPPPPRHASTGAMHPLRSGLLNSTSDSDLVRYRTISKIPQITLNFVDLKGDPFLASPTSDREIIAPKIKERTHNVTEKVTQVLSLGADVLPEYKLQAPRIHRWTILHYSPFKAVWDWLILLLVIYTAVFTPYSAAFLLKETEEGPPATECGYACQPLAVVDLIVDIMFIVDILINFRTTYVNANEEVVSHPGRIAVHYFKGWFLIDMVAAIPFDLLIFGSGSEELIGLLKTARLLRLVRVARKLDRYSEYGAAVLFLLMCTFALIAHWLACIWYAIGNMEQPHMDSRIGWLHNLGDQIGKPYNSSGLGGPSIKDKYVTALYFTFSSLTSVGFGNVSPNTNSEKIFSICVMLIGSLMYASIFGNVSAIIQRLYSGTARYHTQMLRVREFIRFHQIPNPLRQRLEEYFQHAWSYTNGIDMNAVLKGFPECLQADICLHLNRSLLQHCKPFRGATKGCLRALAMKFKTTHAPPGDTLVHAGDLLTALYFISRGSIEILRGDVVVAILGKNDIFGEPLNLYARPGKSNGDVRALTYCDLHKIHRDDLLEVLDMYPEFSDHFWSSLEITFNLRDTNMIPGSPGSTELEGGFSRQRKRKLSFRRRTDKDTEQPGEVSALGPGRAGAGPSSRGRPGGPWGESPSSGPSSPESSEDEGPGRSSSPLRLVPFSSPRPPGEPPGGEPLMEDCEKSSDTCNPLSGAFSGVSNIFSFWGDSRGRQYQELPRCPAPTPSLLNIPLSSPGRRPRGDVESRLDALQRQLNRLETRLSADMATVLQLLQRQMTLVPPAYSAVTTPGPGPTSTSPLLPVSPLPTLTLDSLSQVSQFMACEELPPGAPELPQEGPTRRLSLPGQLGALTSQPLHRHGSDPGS
AMPK alpha2/beta1/gamma1, sequence (P54646 whole entry): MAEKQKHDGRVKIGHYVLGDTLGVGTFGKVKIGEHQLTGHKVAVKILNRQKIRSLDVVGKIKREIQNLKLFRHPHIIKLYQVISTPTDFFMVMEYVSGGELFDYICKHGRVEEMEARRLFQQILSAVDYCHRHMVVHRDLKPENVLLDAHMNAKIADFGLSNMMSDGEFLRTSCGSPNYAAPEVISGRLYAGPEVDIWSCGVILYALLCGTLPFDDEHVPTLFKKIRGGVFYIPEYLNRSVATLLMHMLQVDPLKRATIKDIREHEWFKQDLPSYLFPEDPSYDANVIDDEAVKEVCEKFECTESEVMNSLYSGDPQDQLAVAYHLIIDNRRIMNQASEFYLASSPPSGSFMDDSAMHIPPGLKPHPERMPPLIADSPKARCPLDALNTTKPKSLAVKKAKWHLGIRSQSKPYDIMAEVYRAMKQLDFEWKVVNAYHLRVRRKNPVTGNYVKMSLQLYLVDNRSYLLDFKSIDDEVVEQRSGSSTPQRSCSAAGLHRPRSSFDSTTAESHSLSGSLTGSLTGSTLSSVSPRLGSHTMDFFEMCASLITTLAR
AMPK alpha2/beta1/gamma1, sequence (P54619 whole entry): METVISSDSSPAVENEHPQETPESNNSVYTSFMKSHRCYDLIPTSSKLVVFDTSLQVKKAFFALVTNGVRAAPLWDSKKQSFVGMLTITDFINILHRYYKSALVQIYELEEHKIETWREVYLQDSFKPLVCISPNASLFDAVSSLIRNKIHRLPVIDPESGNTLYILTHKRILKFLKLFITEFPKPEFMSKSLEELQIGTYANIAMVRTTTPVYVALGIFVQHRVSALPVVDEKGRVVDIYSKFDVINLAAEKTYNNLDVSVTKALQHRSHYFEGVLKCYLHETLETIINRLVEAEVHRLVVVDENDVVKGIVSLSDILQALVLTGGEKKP
AMPK alpha2/beta1/gamma1, sequence (Q9Y478 whole entry): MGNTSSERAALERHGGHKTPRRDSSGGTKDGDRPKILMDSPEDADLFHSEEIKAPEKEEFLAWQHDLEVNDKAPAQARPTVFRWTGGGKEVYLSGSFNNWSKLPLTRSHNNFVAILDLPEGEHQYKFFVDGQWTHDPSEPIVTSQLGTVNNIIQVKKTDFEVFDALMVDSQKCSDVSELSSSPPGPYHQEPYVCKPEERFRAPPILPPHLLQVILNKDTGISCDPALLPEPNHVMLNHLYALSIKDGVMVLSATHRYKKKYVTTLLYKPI
Mast/stem cell growth factor receptor Kit, sequence (P10721 whole entry): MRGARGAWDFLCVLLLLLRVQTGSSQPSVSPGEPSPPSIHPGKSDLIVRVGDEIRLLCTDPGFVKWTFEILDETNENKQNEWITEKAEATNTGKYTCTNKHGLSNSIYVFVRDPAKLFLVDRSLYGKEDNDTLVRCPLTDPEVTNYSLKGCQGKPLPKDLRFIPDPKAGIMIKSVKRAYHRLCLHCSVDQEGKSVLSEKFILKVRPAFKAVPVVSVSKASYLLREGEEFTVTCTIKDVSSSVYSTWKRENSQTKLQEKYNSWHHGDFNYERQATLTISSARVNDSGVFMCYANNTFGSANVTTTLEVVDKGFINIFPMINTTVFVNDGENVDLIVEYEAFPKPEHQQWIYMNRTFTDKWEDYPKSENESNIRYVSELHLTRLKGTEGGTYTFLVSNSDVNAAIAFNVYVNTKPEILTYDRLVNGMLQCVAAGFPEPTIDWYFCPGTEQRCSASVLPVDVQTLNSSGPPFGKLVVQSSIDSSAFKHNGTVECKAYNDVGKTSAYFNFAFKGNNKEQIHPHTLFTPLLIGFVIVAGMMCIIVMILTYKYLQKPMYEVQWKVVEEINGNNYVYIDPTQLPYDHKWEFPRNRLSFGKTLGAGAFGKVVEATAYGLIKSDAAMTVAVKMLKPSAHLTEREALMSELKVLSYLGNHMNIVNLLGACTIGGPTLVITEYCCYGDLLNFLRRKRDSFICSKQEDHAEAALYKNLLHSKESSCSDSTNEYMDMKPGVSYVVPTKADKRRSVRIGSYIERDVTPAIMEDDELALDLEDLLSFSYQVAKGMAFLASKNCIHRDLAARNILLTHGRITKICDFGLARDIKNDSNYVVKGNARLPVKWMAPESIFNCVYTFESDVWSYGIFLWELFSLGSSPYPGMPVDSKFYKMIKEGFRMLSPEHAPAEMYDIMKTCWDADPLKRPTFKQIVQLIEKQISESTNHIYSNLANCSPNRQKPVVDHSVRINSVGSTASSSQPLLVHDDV

Question: What does the source list for `CC(C)(O)CC(=O)N1CCc2cc(Nc3ncc(C(F)(F)F)c(N[C@H]4CC[C@@H](N)CC4)n3)ccc2C1`?
Answer: IC50 [1]: 8.2 nM; inhibition (INH) [2]: Active; Activity [3]: Non-Toxic; inhibition [4]: Dose-Dependent Effect; Ratio IC50 [5]: > 100; inhibition [6]: Dose-Dependent Effect; Ratio IC50 [7]: > 100; inhibition [8]: 100%; Ratio IC50 [9]: > 100; AUC(0-t) [10]: 1570 ng·h/mL; Ratio IC50 [11]: > 100; Ratio IC50 [12]: > 100; IC50 [13]: 58400 nM; IC50 [14]: 0.21 nM; Ratio IC50 [15]: > 100; Activity [16]: Dose-Dependent Effect; Activity [17]: Active; inhibition in vivo at 3 mg/kg [18]: 52.8%; Ratio IC50 [19]: > 100; Tmax [20]: 2 h; Ratio IC50 [21]: > 100; Activity [22]: Active; Ratio IC50 [23]: > 100; IC50 [24]: 1.08 nM; IC50 [25]: 1870 nM; Ratio IC50 [26]: > 100; Ratio IC50 [27]: > 100; MRT inf [28]: 5.73 h; Activity [29]: Non-Toxic; Activity [30]: Non-Toxic; Ratio IC50 [31]: > 100; Ratio IC50 [32]: 1740; Cmax [33]: 571 ng/mL; IC50 [34]: 18.4 nM; Activity [35]: Non-Toxic; Ratio IC50 [36]: > 100; Ratio IC50 [37]: > 100; Ratio IC50 [38]: > 100; Activity [39]: Non-Toxic; Ratio IC50 [40]: > 100; Activity [41]: Non-Toxic; inhibition (INH) [42]: Not Active

— ChEMBL document CHEMBL5321272 (J Med Chem, 2023)
